From patent US20190300885A1, “A NOVEL ROLE FOR TERMINAL RNA URIDYLATION AND RNA TURNOVER IN ONCOGENESIS” (Children's Medical Center Corporation, priority 2016, published 2019)
“Also recorded” adds a separate entry of the source.

Experiments:
HCT116 cells [1] = experiment: Growth/viability of wild-type vs TUTase knockout HCT116 cells under increasing bortezomib concentrations; type: cell-based, human; conditions: HCT116, ZCCHC6 knockout vs WT
Description: FIG. 16. TUTase loss has a downstream impact on protein turnover. Top, the relative rates of global mRNA translation as measured by the OP-Puromycin fluorescent assay are shown. siNC=negative control siRNA; siZ6=siZCCHC6. Error bars indicate SEM (n=3); *P<0.05. Bottom, growth curves of HCT116 cells after CRISPR/Cas9-mediated knockout using a ZCCHC6-targeting sgRNA (KO) or a GFP-targeting control sgRNA (WT) under treatment with different concentrations of bortezomib are shown.
Given that TUTases affect mRNA turnover, it was also surmised that they may have a downstream effect on protein turnover. To address this hypothesis, the global rate of translation in TUTase knockdown versus control HCT116 cells was measured using the OP-Puromycin method. […] In addition, we treated wild-type and TUTase knockout HCT116 cells with increasing concentrations of bortezomib, an inhibitor of the proteasome and thus protein decay (FIG. 16).

HCT116 cells [2] = experiment: Growth curves of wild-type vs ZCCHC6 knockout HCT116 cells under increasing drug concentrations; type: cell-based, human; conditions: HCT116, CRISPR/Cas9 ZCCHC6 knockout (KO) vs GFP-sgRNA control (WT)
Description: FIGS. 5A-5B. TUTase loss sensitizes cancer cells to disruption of RNA metabolism. […] Error bars indicate SEM (n=3); *P<0.05, **P<0.01.
Given the observed phenotypes, whether there are conditions that specifically sensitize cancer cells to TUTase loss was examined. In particular, since TUTases have been associated with RNA turnover, it was surmised that they may play an especially important role in the context of perturbed RNA metabolism. To address this hypothesis, small molecule agents that are known to cause DNA/RNA damage and thus impair RNA quality (doxorubicin, cisplatin, etoposide), as well as ones that inhibit nucleotide synthesis and thereby limit the pool of available nucleotides in the cell (5-fluorouracil and hydroxyurea) were selected, and wild-type and ZCCHC6 knockout HCT116 cells were treated with increasing concentrations of each agent (FIG. 5A). […] 5-FU has been specifically shown to target the RNA exosome complex, which may explain its differential activity from hydroxyurea in the experiments.

Row | SMILES | effect on cell viability in TUTase knockout vs wild-type cells (HCT116 cells [1]) | differential dose-dependent growth response of ZCCHC6 knockout vs wild-type cells (HCT116 cells [2])
1 | CC(C)C[C@H](NC(=O)[C@H](Cc1ccccc1)NC(=O)c1cnccn1)B(O)O [bortezomib] | stronger in the TUTase knockout cells | 
2 | COc1cccc2c1C(=O)c1c(O)c3c(c(O)c1C2=O)C[C@@](O)(C(=O)CO)C[C@@H]3O[C@H]1C[C@H](N)[C@H](O)[C@H](C)O1 [doxorubicin] |  | only 5-fluorouracil (5-FU) yielded a differential dose-dependent response
3 | O=c1[nH]cc(F)c(=O)[nH]1 [5-fluorouracil] |  | reproducibly stronger effect on the knockout cells; also recorded: significantly stronger inhibitory effect on cells depleted of TUTase
4 | N.N.[Cl][Pt][Cl] [cisplatin] |  | only 5-fluorouracil (5-FU) yielded a differential dose-dependent response
5 | COc1cc([C@@H]2c3cc4c(cc3[C@@H](O[C@@H]3O[C@@H]5CO[C@@H](C)O[C@H]5[C@H](O)[C@H]3O)[C@H]3COC(=O)[C@H]23)OCO4)cc(OC)c1O [etoposide] |  | only 5-fluorouracil (5-FU) yielded a differential dose-dependent response
